# Source: article PMC7906020, “Trp-Containing Antibacterial Peptides Impair Quorum Sensing and Biofilm Development in Multidrug-Resistant Pseudomonas aeruginosa and Exhibit Synergistic Effects With Antibiotics” (Frontiers in Microbiology, 2021)
# Peptide text beside a SMILES is read from it.
# How the values were obtained:
# Assay type in all cases: cell-based, Pseudomonas aeruginosa
# MRPA0108 cells = assay: Intracellular antibiotic assay by HPLC; conditions: RP-HPLC of cell lysate
# Experimental: Mid-log growth-phase bacteria were diluted to 1 × 10^8 CFU/ml and treated with I1W or L12W at concentrations ranging from 3.13 to 50 μM for 12 h at 37°C. After induction, the cultures were harvested by centrifugation at 12,000 rpm for 2 min, washed three times with PBS buffer (pH 7.2), and then incubated with lysozyme (20 mg/ml) at 37°C for 1 h in a water bath. After centrifugation at 12,000 rpm for 5 min, the supernatant of the cell lysates was collected, added to methanol (1:3) and vortexed to precipitate proteins. After recentrifugation at 12,000 rpm for 5 min, the supernatant was measured by using HPLC with a mobile phase of 0.1% trifluoroacetic acid/methanol (92:8, v/v) and a flow rate of 0.7 ml/min.
# [1] = test system: MRPA0108 biofilm formation; conditions: peptide at 1 × MIC, 24 h, 37°C; crystal violet OD 590 nm; vs control
# Experimental: The biofilm formation of the MRPA0108 strain was assessed as described previously ([Shang et al., 2017]). Briefly, 50 μl of a mid-log growth-phase bacterial solution (1 × 10^5 CFU/ml) was placed into a 96-well microtiter plate and incubated overnight with 50 μl of peptide at a final concentration of 1/8 × MIC, 1/4 × MIC, 1/2 × MIC, or 1 × MIC. LB liquid medium and erythromycin were used as negative and positive controls, respectively. After 24 h of incubation at 37°C, planktonic bacteria were carefully removed, and the biofilms were fixed with formaldehyde for 15 min and stained with 0.1% (w/v) crystal violet (CV) dye for 5 min. Before being quantified by reading the absorbance at 590 nm in a microtiter plate reader (Varioskan Flash Microplate Reader, Thermo Fisher Scientific Co., Beijing), biofilms were washed and solubilized with 95% ethanol. The OD 590 nm was determined as a measure of biofilm biomass.
# [2] = test system: LasB elastase of MRPA0108; assay: LasB elastase activity, elastin-Congo red method; conditions: peptide at 1/4 × MIC, 24 h, 37°C; ECR substrate, OD495/OD600; vs control; triplicate
# Experimental: The culture supernatant was obtained after centrifugation at 12,000×g for 10 min. (1) LasB elastase activity was measured using elastin-Congo red (ECR) as the substrate, as described by [Pattnaik et al. (2018)]. Briefly, 100 μl of the culture supernatant was added to 900 μl of ECR buffer (100 mM Tris-HCl, 1 mM CaCl2, pH 7.5) containing 10 mg of ECR and then incubated with shaking at 37°C for 18 h. Then, 100 μl of 0.12 M EDTA was added to stop the reaction. The insoluble ECR was removed by centrifugation, and the supernatant absorbance was measured at 495 nm. The optical density (OD) 495 nm/OD 600 nm represents the elastase activity. (2) LasA protease activity was measured as follows ([Pattnaik et al., 2018]): first, the culture supernatant was filtered to remove the bacterial cells, and then 150 μl of sterile-filtered supernatant was added to 2% azocasein (prepared in 50 mM Tris-HCl) and incubated for 4 h at 37°C. Trichloroacetic acid (TCA, 10%) was added to precipitate the undigested substrate. After centrifugation at 10,000 rpm for 10 min, 1 M NaOH was added to the supernatant, and the relative protease activity was measured at OD 440 nm. (3) The pyocyanin assay was based on the absorbance of excreted pyocyanin at 520 nm in an acidic solution ([Kong et al., 2005]). Three milliliters of culture supernatant were mixed with 2 ml of chloroform for 20 min, and then the pyocyanin from the chloroform phase was reextracted using 0.2 M HCl for 15 min to obtain a pink-colored pyocyanin solution. The OD 520 nm was measured to evaluate the change in pyocyanin content. (4) Rhamnolipid detection was carried out as previously described ([Wittgens et al., 2011]). Briefly, 500 μl of culture supernatant was mixed with 500 μl of ethyl acetate and vortexed vigorously for 15 s to extract rhamnolipid. After centrifugation at 10,000×g for 5 min at 4°C, the organic phase containing rhamnolipids was obtained and evaporated at room temperature overnight. […] The absorbance was measured at 420 nm. (5) The level of C4-HSL was quantified by GC-MS as previously described ([Guo et al., 2012]).
# [3] = test system: β-lactamase activity in MRPA0108 cells; assay: β-Lactamase activity assay (nitrocefin kit) in treated cells; conditions: compared to control
# Experimental: β-lactamase activity was measured by using a β-lactamase assay kit (YIASEN Biotech Co., Ltd., Shanghai, China) according to the manufacturer’s instructions. Briefly, mid-log growth-phase bacteria were diluted to 1 × 10^8 CFU/ml and treated with I1W or L12W at concentrations ranging from 3.13 to 50 μM for 12 h at 37°C. After induction, the cultures were harvested by centrifugation at 5,000 rpm at 4°C, washed three times with PBS buffer (pH 7.2), and then resuspended in the same buffer. The cells were sonicated on ice for 15 min, and the cell lysates containing β-lactamase were collected by centrifugation at 12,000 rpm for 30 min at 4°C. Fifty microliters of the prepared β-lactamase-containing lysates was mixed with 50 μl of assay buffer containing nitrocefin and reacted at room temperature in a dark environment for 20 min. Nitrocefin hydrolysis was measured spectrophotometrically at 490 nm. Concurrently, the total protein content was determined with a Bradford assay using the same supernatant. One milliunit of β-lactamase is defined as 1 nanomole of nitrocefin hydrolyzed per minute per microgram of protein.
# [4] = range over peptide 3.13 to 50 μM, 12 h 37°C
smiles,measurement,setting,value
CC[C@H](C)[C@H](NC(=O)[C@H](CCCCN)NC(=O)[C@H](CO)NC(=O)[C@H](CC(C)C)NC(=O)[C@@H](NC(=O)[C@H](CCCCN)NC(=O)[C@H](CCCCN)NC(=O)[C@@H](N)Cc1c[nH]c2ccccc12)[C@@H](C)CC)C(=O)N[C@@H](CCCCN)C(=O)N[C@@H](CCCCN)C(=O)N[C@@H](CC(C)C)C(=O)N[C@@H](CC(C)C)C(=O)N[C@@H](CCCCN)C(N)=O [I1W] (H-WKKILSKIKKLLK-NH2; N-terminus and C-terminus assumed),increase of ceftazidime content in MRPA0108 cells,MRPA0108 cells; peptide at its MIC,19%
same,increase of levofloxacin content in MRPA0108 cells,MRPA0108 cells; peptide at its MIC,1%
same,increase of piperacillin content in MRPA0108 cells,MRPA0108 cells; peptide at its MIC,17%
same,increase of ceftazidime content in MRPA0108 cells,MRPA0108 cells; [4],7.5-100%
same,increase of levofloxacin content in MRPA0108 cells,MRPA0108 cells; [4],0.01–22%
same,increase of piperacillin content in MRPA0108 cells,MRPA0108 cells; [4],8–80%
same,reduction of biofilm formation,[1],53%
same,decrease of LasB elastase activity,[2],21.0%
same,"effect on β-lactamase activity, peptide alone",[3]; peptide alone at concentrations greater than 12.5 μM,reduced β-lactamase activity
same,"effect on β-lactamase activity, peptide alone",[3]; peptide alone at low concentrations,no effect on β-lactamase activity
